{"source": "patent US6479435B1", "about": "“Diaryl ethers and processes for their preparation and herbicidal and desiccant compositions containing them” (ISK Americas Incorporated, priority 1997, dated 2002)", "assay_type_in_all_cases": "in vivo", "key": {"[1]": {"tested_on": "Johnsongrass (Sorghum halepense, SORHA)", "experiment": "Pre-emerge greenhouse herbicide test, phytotoxicity rating", "conditions": "14 days after application, rating scale 0-100", "method_in_brief": "(§1)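 Seeds sown in sandy loam mix one day before track-sprayer application of compounds in acetone at 125–1000 g ai/ha (187 l/ha), then surface-watered to incorporate and bottom-watered. Visual rating 14 days after application on a 0–100 scale (0 = no damage, 100 = all plants dead).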"}, "[2]": {"tested_on": "barnyardgrass (Echinochloa crusgalli, ECHCG)", "experiment": "Pre-emerge greenhouse herbicide test, phytotoxicity rating", "conditions": "14 days after application, rating scale 0-100", "method_in_brief": "as §1"}, "[3]": {"tested_on": "common ragweed (Ambrosia artemisiifolia L., AMBEL)", "experiment": "Pre-emerge greenhouse herbicide test, phytotoxicity rating", "conditions": "14 days after application, rating scale 0-100", "method_in_brief": "as §1"}, "[4]": {"tested_on": "green foxtail (Setaria viridis, SETVI)", "experiment": "Pre-emerge greenhouse herbicide test, phytotoxicity rating", "conditions": "14 days after application, rating scale 0-100", "method_in_brief": "as §1"}, "[5]": {"tested_on": "ivyleaf morningglory (Ipomoea hederacea, IPOHE)", "experiment": "Pre-emerge greenhouse herbicide test, phytotoxicity rating", "conditions": "14 days after application, rating scale 0-100", "method_in_brief": "as §1"}, "[6]": {"tested_on": "lambsquarters (Chenopodium album, CHEAL)", "experiment": "Pre-emerge greenhouse herbicide test, phytotoxicity rating", "conditions": "14 days after application, rating scale 0-100", "method_in_brief": "as §1"}, "[7]": {"tested_on": "large crabgrass (Digitaria sanguinalis, DIGSA)", "experiment": "Pre-emerge greenhouse herbicide test, phytotoxicity rating", "conditions": "14 days after application, rating scale 0-100", "method_in_brief": "as §1"}, "[8]": {"tested_on": "redroot pigweed (Amaranthus retroflexus, AMARE)", "experiment": "Pre-emerge greenhouse herbicide test, phytotoxicity rating", "conditions": "14 days after application, rating scale 0-100", "method_in_brief": "as §1"}, "[9]": {"tested_on": "sicklepod (Cassia obtusifolia, CASOB)", "experiment": "Pre-emerge greenhouse herbicide test, phytotoxicity rating", "conditions": "14 days after application, rating scale 0-100", "method_in_brief": "as §1"}, "[10]": {"tested_on": "velvetleaf (Abutilon theophrasti, ABUTH)", "experiment": "Pre-emerge greenhouse herbicide test, phytotoxicity rating", "conditions": "14 days after application, rating scale 0-100", "method_in_brief": "as §1"}, "[11]": {"tested_on": "field corn (Zea mays L., var. Dekalb 535, CORN)", "experiment": "Pre-emerge greenhouse test, crop damage rating", "conditions": "14 days after application, rating scale 0-100", "method_in_brief": "as §1"}, "[12]": {"tested_on": "upland rice (Oryza sp., var.Tebonnet, RICE)", "experiment": "Pre-emerge greenhouse test, crop damage rating", "conditions": "14 days after application, rating scale 0-100", "method_in_brief": "as §1"}, "[13]": {"tested_on": "soybean (Glycine max L., var. Pella 86, SOY)", "experiment": "Pre-emerge greenhouse test, crop damage rating", "set-up": "key to SOY crop damage rating: 0 = no damage, 100 = complete death of all plants", "conditions": "14 days after application, rating scale 0-100", "method_in_brief": "as §1"}, "[14]": {"tested_on": "common ragweed (Ambrosia artemisiifolia L., AMBEL)", "experiment": "Post-emerge greenhouse herbicide test, phytotoxicity rating", "conditions": "14 days after application, scale 0-100", "method_in_brief": "(§2)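 Compounds in acetone with 0.25% v/v non-ionic surfactant were track-sprayed at 187 l/ha over plants at the 2-3 leaf stage, at 63 to 1000 g ai/ha. Pots were bottom-watered. Injury was scored visually 14 days later on a 0-100 scale, where 0 is no damage and 100 is complete plant death.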"}, "[15]": {"tested_on": "Johnsongrass (Sorghum halepense, SORHA)", "experiment": "Post-emerge greenhouse herbicide test, phytotoxicity rating", "conditions": "14 days after application, scale 0-100", "method_in_brief": "as §2"}, "[16]": {"tested_on": "barnyardgrass (Echinochloa crusgalli, ECHCG)", "experiment": "Post-emerge greenhouse herbicide test, phytotoxicity rating", "conditions": "14 days after application, scale 0-100", "method_in_brief": "as §2"}, "[17]": {"tested_on": "green foxtail (Setaria viridis, SETVI)", "experiment": "Post-emerge greenhouse herbicide test, phytotoxicity rating", "conditions": "14 days after application, scale 0-100", "method_in_brief": "as §2"}, "[18]": {"tested_on": "ivyleaf morningglory (Ipomoea hederacea, IPOHE)", "experiment": "Post-emerge greenhouse herbicide test, phytotoxicity rating", "conditions": "14 days after application, scale 0-100", "method_in_brief": "as §2"}, "[19]": {"tested_on": "lambsquarters (Chenopodium album, CHEAL)", "experiment": "Post-emerge greenhouse herbicide test, phytotoxicity rating", "conditions": "14 days after application, scale 0-100", "method_in_brief": "as §2"}, "[20]": {"tested_on": "large crabgrass (Digitaria sanguinalis, DIGSA)", "experiment": "Post-emerge greenhouse herbicide test, phytotoxicity rating", "conditions": "14 days after application, scale 0-100", "method_in_brief": "as §2"}, "[21]": {"tested_on": "redroot pigweed (Amaranthus retroflexus, AMARE)", "experiment": "Post-emerge greenhouse herbicide test, phytotoxicity rating", "conditions": "14 days after application, scale 0-100", "method_in_brief": "as §2"}, "[22]": {"tested_on": "sicklepod (Cassia obtusifolia, CASOB)", "experiment": "Post-emerge greenhouse herbicide test, phytotoxicity rating", "conditions": "14 days after application, scale 0-100", "method_in_brief": "as §2"}, "[23]": {"tested_on": "velvetleaf (Abutilon theophrasti, ABUTH)", "experiment": "Post-emerge greenhouse herbicide test, phytotoxicity rating", "conditions": "14 days after application, scale 0-100", "method_in_brief": "as §2"}, "[24]": {"tested_on": "field corn (Zea mays L., var. Dekalb 535, CORN)", "experiment": "Post-emerge greenhouse test, crop damage rating", "conditions": "14 days after application, scale 0-100", "method_in_brief": "as §2"}, "[25]": {"tested_on": "upland rice (Oryza sp., var.Tebonnet, RICE)", "experiment": "Post-emerge greenhouse test, crop damage rating", "conditions": "14 days after application, scale 0-100", "method_in_brief": "as §2"}, "[26]": {"tested_on": "soybean (Glycine max L., var. Pella 86, SOY)", "experiment": "Post-emerge greenhouse test, crop damage rating", "set-up": "key to crop damage rating SOY: 0-100 scale: 0 = no damage, 100 = complete death of all plants", "conditions": "14 days after application, scale 0-100", "method_in_brief": "as §2"}}, "data": [{"smiles": "O=c1n(-c2cc(Oc3nccc(Cl)n3)c(Cl)cc2F)c(=S)n2n1CCCC2", "note": "[Compound 8-31]", "values": [{"measurement": "SORHA phytotoxicity rating", "setting": "[1]; Rate 125 g al/ha", "result": 0}, {"measurement": "SORHA phytotoxicity rating", "setting": "[1]; Rate 500 g al/ha", "result": 20}, {"measurement": "ECHCG phytotoxicity rating", "setting": "[2]; Rate 125 g al/ha", "result": 0}, {"measurement": "ECHCG phytotoxicity rating", "setting": "[2]; Rate 500 g al/ha", "result": 20}, {"measurement": "AMBEL phytotoxicity rating", "setting": "[3]; Rate 125 g al/ha", "result": 30}, {"measurement": "AMBEL phytotoxicity rating", "setting": "[3]; Rate 500 g al/ha", "result": 0}, {"measurement": "SETVI phytotoxicity rating", "setting": "[4]; Rate 125 g al/ha", "result": 0}, {"measurement": "SETVI phytotoxicity rating", "setting": "[4]; Rate 500 g al/ha", "result": 90}, {"measurement": "IPOHE phytotoxicity rating", "setting": "[5]; Rate 125 g al/ha", "result": 0}, {"measurement": "IPOHE phytotoxicity rating", "setting": "[5]; Rate 500 g al/ha", "result": 70}, {"measurement": "CHEAL phytotoxicity rating", "setting": "[6]; Rate 125 g al/ha", "result": 90}, {"measurement": "CHEAL phytotoxicity rating", "setting": "[6]; Rate 500 g al/ha", "result": 100}, {"measurement": "DIGSA phytotoxicity rating", "setting": "[7]; Rate 125 g al/ha", "result": 0}, {"measurement": "DIGSA phytotoxicity rating", "setting": "[7]; Rate 500 g al/ha", "result": 70}, {"measurement": "AMARE phytotoxicity rating", "setting": "[8]; Rate 125 g al/ha", "result": 100}, {"measurement": "AMARE phytotoxicity rating", "setting": "[8]; Rate 500 g al/ha", "result": 100}, {"measurement": "CASOB phytotoxicity rating", "setting": "[9]; Rate 125 g al/ha", "result": 30}, {"measurement": "CASOB phytotoxicity rating", "setting": "[9]; Rate 500 g al/ha", "result": 90}, {"measurement": "ABUTH phytotoxicity rating", "setting": "[10]; Rate 125 g al/ha", "result": 100}, {"measurement": "ABUTH phytotoxicity rating", "setting": "[10]; Rate 500 g al/ha", "result": 100}, {"measurement": "CORN crop damage rating", "setting": "[11]; Rate 125 g al/ha", "result": 0}, {"measurement": "CORN crop damage rating", "setting": "[11]; Rate 500 g al/ha", "result": 0}, {"measurement": "RICE crop damage rating", "setting": "[12]; Rate 125 g al/ha", "result": 0}, {"measurement": "RICE crop damage rating", "setting": "[12]; Rate 500 g al/ha", "result": 10}, {"measurement": "SOY crop damage rating", "setting": "[13]; Rate 125 g al/ha", "result": 40}, {"measurement": "SOY crop damage rating", "setting": "[13]; Rate 500 g al/ha", "result": 0}, {"measurement": "phytotoxicity rating AMBEL", "setting": "[14]; rate 63 g ai/ha", "result": 50}, {"measurement": "phytotoxicity rating AMBEL", "setting": "[14]; rate 500 g ai/ha", "result": 95}, {"measurement": "phytotoxicity rating SORHA", "setting": "[15]; rate 63 g ai/ha", "result": 0}, {"measurement": "phytotoxicity rating SORHA", "setting": "[15]; rate 500 g ai/ha", "result": 30}, {"measurement": "phytotoxicity rating ECHCG", "setting": "[16]; rate 63 g ai/ha", "result": 0}, {"measurement": "phytotoxicity rating ECHCG", "setting": "[16]; rate 500 g ai/ha", "result": 20}, {"measurement": "phytotoxicity rating SETVI", "setting": "[17]; rate 63 g ai/ha", "result": 10}, {"measurement": "phytotoxicity rating SETVI", "setting": "[17]; rate 500 g ai/ha", "result": 40}, {"measurement": "phytotoxicity rating IPOHE", "setting": "[18]; rate 63 g ai/ha", "result": 80}, {"measurement": "phytotoxicity rating IPOHE", "setting": "[18]; rate 500 g ai/ha", "result": 80}, {"measurement": "phytotoxicity rating CHEAL", "setting": "[19]; rate 63 g ai/ha", "result": 90}, {"measurement": "phytotoxicity rating CHEAL", "setting": "[19]; rate 500 g ai/ha", "result": 95}, {"measurement": "phytotoxicity rating DIGSA", "setting": "[20]; rate 63 g ai/ha", "result": 0}, {"measurement": "phytotoxicity rating DIGSA", "setting": "[20]; rate 500 g ai/ha", "result": 50}, {"measurement": "phytotoxicity rating AMARE", "setting": "[21]; rate 63 g ai/ha", "result": 70}, {"measurement": "phytotoxicity rating AMARE", "setting": "[21]; rate 500 g ai/ha", "result": 100}, {"measurement": "phytotoxicity rating CASOB", "setting": "[22]; rate 63 g ai/ha", "result": 0}, {"measurement": "phytotoxicity rating CASOB", "setting": "[22]; rate 500 g ai/ha", "result": 80}, {"measurement": "phytotoxicity rating ABUTH", "setting": "[23]; rate 63 g ai/ha", "result": 70}, {"measurement": "phytotoxicity rating ABUTH", "setting": "[23]; rate 500 g ai/ha", "result": 100}, {"measurement": "crop damage rating CORN", "setting": "[24]; rate 63 g ai/ha", "result": 5}, {"measurement": "crop damage rating CORN", "setting": "[24]; rate 500 g ai/ha", "result": 10}, {"measurement": "crop damage rating RICE", "setting": "[25]; rate 63 g ai/ha", "result": 0}, {"measurement": "crop damage rating RICE", "setting": "[25]; rate 500 g ai/ha", "result": 5}, {"measurement": "crop damage rating SOY", "setting": "[26]; rate 63 g ai/ha", "result": 70}, {"measurement": "crop damage rating SOY", "setting": "[26]; rate 500 g ai/ha", "result": 70}]}]}
